# Values of other authors as cited in patent publication US8007545B2, “Deodorant compositions” (Kao Corporation, priority 2005, dated 2011).
# Details: 1-octanol/water; actual database value or C log P
row,log P,SMILES
1,2.0,"CCCCC(CC)COCC(O)CO (stereo not drawn) [b3-2, 2-Ethylhexyl monoglyceryl ether]"
2,1.1,"CCCCCCOC(CO)COCC(O)CO (stereo not drawn) [b3-1, Glyceryl ether monohexyl ether]"
3,0.6,"CCCCOCCOCCO [b3-3, Diethylene glycol monobutyl ether]"
